Measurements from article PMC8952208, “Synthesis, Antiplasmodial, and Antileukemia Activity of Dihydroartemisinin–HDAC Inhibitor Hybrids as Multitarget Drugs” (Pharmaceuticals, 2022).

Key:
[1] = tested on: acetylation of α-tubulin (marker of HDAC6 inhibition); assay: Immunoblotting, acetyl-α-tubulin in K562 cells; type: cell-based, human; conditions: 0.4 µM, 24 h
Method: (§1) K562 cells were treated with the indicated concentration of the compounds or vehicle control (DMSO) for 24 h. The recovered cell pellets were lysed with RIPA buffer (50 mM Tris-HCl pH 8.0, 1% Triton X-100, 0.5% sodium deoxycholate, 0.1% SDS, 150 mM sodium chloride, and 2 mM EDTA), supplemented with protease and phosphatase inhibitors (Thermofischer Scientific, Waltham, MA, USA). An equal amount of total protein (20 µg) was resolved by SDS-PAGE and followed by transfer on nitrocellulose membrane (Sigma-Aldrich). PageRuler prestained protein ladder, 10 kDa to 180 kDa (Thermofisher Scientific, Waltham, MA, USA) was used as a protein molecular weight marker.

[2] = tested on: acetylation of histone H3 (marker of HDAC1 inhibition); assay: Immunoblotting, acetyl-histone H3 in K562 cells; type: cell-based, human; conditions: 0.4 µM, 24 h
Method: as §1

In the case of `O=C(CCCCCCC(=O)Nc1ccccc1)NO` [Vorinostat, vorinostat], the “acetylation of α-tubulin (immunoblot)” value [1] is reported as “caused hyperacetylation of α-tubulin and histone H3” and the “acetylation of histone H3 (immunoblot)” value [2] is reported as “caused hyperacetylation of α-tubulin and histone H3”.
